The text below walks through data of patent publication US7504411B2, “2,3,6-Trisubstituted-4-pyrimidone derivatives” (Mitsubishi Tanabe Pharma Corporation, priority 2003, dated 2009).

This experiment concerns the target T1, bovine cerebral TPK1 (Bos taurus, UniProt A0A3Q1MT31).
T1 construct: Phosphorylation by Bovine Cerebral TPK1; from tissue; host or cells: bovine brain (cerebrum)
As to the kind of experiment: Inhibitory activity against P-GS1 phosphorylation by bovine cerebral TPK1. Format: biochemical. The note with it: 41.7 μM [γ-32P]ATP, 25° C., 2 hours. How it is done: Inhibitory Activity of the Medicament of the Present Invention against P-GS1 Phosphorylation by Bovine Cerebral TPK1
A mixture containing 100 mM MES-sodium hydroxide (pH 6.5), 1 mM magnesium acetate, 0.5 mM EGTA, 5 mM β-mercaptoethanol, 0.02% Tween 20, 10% glycerol, 12 μg/ml P-GS1, 41.7 μM [γ-^32P] ATP (68 kBq/ml), bovine cerebral TPK1 and a compound shown in Table (a final mixture contained 1.7% DMSO deriving from a solution of a test compound prepared in the presence of 10% DMSO) was used as a reaction system. The phosphorylation was started by adding ATP, and the reaction was conducted at 25° C. for 2 hours, and then stopped by adding 21% perchloric acid on ice cooling. The reaction mixture was centrifuged at 12,000 rpm for 5 minutes and adsorbed on P81 paper (Whatmann), and then the paper was washed four times with 75 mM phosphoric acid, three times with water and once with acetone. The paper was dried, and the residual radioactivity was measured using a liquid scintillation counter.

T1 sequence (A0A3Q1MT31 1-419): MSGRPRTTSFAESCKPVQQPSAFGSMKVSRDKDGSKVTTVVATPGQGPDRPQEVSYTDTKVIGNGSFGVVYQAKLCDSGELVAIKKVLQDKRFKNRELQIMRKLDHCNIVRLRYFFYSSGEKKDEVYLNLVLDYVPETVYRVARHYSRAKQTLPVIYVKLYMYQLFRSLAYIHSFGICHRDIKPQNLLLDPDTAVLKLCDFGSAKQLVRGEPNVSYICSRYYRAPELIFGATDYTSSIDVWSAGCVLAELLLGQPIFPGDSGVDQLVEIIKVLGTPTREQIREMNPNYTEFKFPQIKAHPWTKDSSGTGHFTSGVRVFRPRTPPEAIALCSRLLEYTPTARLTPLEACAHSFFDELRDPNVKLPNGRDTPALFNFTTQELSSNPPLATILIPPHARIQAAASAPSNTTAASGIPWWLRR

The term IC50 denotes the concentration that gives 50% inhibition. A low value points to higher potency. Take `Cn1c(N2CCNC(c3ccccc3)C2)nc(-c2ccncc2)cc1=O` (stereo not drawn) [XA361]: the IC50 stood at 18 nM.

`Cn1c(N2CCCC(C#N)(c3ccccc3)C2)nc(-c2ccncc2)cc1=O` (stereo not drawn) [XB80] yielded an IC50 of 230 nM.

`COc1cc(F)ccc1C1CN(c2nc(-c3ccncn3)cc(=O)n2C)CCN1Cc1ccccc1` (stereo not drawn) [YA0864]: the IC50 is 216 nM. This IC50 and that of the compound before are within 1.5-fold of each other.
